The values below come from ChEMBL document CHEMBL1201862, “PubChem BioAssay data set” (2004).

Experiment [1] is described as follows: inhibitors of intracellular T. cruzi replication, confirmation, NIH3T3 host cells, beta-gal luminescence (AID 2044).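 Note: intracellular parasites grown in NIH/3T3 mouse fibroblasts as host cells; luminescent beta-galactosidase reporter signal from transgenic T. cruzi replicating inside host cells; inhibitors lower the luminescence signal.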 Format: functional, cell-based.
The nature of experiment [2]: cells.
The nature of experiment [3]: cytotoxicity toward NIH3T3 fibroblasts, dose response, counter-screen, cell-based, ATP luminescence, mouse fibroblasts (AID 2010).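 Note: cells exposed to compound for about 90 hours before reading.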 Format: functional.
Experiment [4] addresses T1, Mannose-6-phosphate isomerase (Homo sapiens, UniProt P34949).
T1 sequence (P34949 whole entry): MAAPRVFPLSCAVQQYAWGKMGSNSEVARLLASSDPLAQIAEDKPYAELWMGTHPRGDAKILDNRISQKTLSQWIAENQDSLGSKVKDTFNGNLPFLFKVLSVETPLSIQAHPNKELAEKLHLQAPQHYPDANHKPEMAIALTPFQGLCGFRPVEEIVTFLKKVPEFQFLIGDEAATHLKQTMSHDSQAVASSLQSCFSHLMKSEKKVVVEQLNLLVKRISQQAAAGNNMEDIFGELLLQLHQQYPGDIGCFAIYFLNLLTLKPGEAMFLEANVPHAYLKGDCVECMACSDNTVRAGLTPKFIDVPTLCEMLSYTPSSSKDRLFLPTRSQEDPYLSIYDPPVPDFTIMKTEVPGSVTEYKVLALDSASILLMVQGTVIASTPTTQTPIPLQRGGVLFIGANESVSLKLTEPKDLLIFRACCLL
Nature of the experiment: human PMI inhibitors, high substrate, primary screen, biochemical, fluorescence intensity, high mannose 6-phosphate (AID 1220).

The target in experiment [5] is T1, Mannose-6-phosphate isomerase. Kind of experiment: inhibitors of human PMI, primary screen, biochemical, fluorescence intensity, coupled assay (AID 1209).
The target of experiment [6] is T2, Protein skinhead-1 (Caenorhabditis elegans, UniProt P34707).
T2 sequence (P34707 whole entry): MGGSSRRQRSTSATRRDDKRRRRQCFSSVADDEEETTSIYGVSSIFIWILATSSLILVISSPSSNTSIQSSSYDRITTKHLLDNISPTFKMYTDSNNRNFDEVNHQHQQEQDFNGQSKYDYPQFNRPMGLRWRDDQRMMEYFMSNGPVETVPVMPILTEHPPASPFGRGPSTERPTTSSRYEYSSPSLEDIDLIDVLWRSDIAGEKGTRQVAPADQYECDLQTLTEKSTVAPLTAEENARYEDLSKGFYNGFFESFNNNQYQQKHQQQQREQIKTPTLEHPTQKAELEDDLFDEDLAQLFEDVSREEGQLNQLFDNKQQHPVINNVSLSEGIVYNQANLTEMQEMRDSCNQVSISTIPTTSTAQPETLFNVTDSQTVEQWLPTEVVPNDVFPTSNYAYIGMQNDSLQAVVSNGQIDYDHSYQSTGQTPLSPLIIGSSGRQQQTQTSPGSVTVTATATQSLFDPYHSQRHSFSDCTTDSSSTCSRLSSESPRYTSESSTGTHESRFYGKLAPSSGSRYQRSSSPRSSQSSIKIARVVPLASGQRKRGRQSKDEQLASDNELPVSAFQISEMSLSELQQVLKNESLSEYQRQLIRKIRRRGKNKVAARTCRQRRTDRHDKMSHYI
Type of experiment: functional.

Experiment [7] has as its target T3, Oxysterols receptor LXR-beta (Homo sapiens, UniProt P55055).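 Note: Cell-based luminescence dose-response assay of agonist activity at LXR, run as a confirmatory counterscreen to a daf-12 agonist screen; HEK293 cells with Gal4-LXR fusion and GAL4-driven luciferase reporter; agonist potency from rising luciferase signal of a Gal4-LXR reporter.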
T3 sequence (P55055 whole entry): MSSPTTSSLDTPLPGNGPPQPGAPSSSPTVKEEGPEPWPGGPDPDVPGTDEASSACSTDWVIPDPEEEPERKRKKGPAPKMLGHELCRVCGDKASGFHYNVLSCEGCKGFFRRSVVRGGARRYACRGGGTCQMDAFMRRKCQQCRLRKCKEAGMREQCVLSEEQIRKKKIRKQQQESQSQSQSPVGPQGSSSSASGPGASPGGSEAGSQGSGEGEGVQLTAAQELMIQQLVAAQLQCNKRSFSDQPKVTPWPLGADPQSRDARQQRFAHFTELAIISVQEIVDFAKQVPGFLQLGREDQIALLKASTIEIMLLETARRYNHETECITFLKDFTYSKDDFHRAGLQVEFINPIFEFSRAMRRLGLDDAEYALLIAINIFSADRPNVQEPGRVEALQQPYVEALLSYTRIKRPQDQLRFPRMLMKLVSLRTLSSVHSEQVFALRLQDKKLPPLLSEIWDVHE
Format: functional, cell-based.

A short description of experiment [8]: cells. The source holds these as a separate data set.
The target of experiment [9] is Cytochrome P450 2C19 (Homo sapiens, UniProt P33261). Kind of experiment: qHTS Assay for Inhibitors and Substrates of Cytochrome P450 2C19. [Related pubchem assays: 410 ]. Type of experiment: ADME. The following applies: read-out: Potency.
Experiment [10] has as its target Voltage-dependent T-type calcium channel subunit alpha-1H (Homo sapiens, UniProt O95180). Type of experiment: functional.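 Note: channel activity triggered by adding a high calcium stimulation buffer.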
Experiment [11] is described as follows: P. falciparum Dd2 growth inhibitors, dose response, SYBR Green, cherry-picked samples (AID 1159567). Type of experiment: functional, cell-based.
Experiment [12] is described as follows: HepG2 cell cytotoxicity, dose response, cytotoxicity control, cherry-picked samples (AID 1159577). Format: functional, cell-based.
The target of experiment [13] is T4, Polyadenylate-binding protein 1 (Homo sapiens, UniProt P11940). Nature of the experiment: PABP1 MLLE–PAM2 interaction inhibitors, dose response, miRNA deadenylation inhibitor project, biochemical, fluorescence polarization, Cy5-PAM2 peptide, secondary (AID 602260). Format: functional. To be noted: read-out: IC50_Mean.
Experiment [14] can be described thus: Dose-response inhibition of insulin secretion in a rat insulinoma line at 5 mM glucose (AID 1117331). Format: functional, cell-based. To be noted: INS-1E.
Experiment [15] concerns the target T4, Polyadenylate-binding protein 1. Kind of experiment: PABP1 MLLE–PAM2 binding inhibitor potency, dose response, biochemical, fluorescence polarization, FITC-PAM2 peptide (AID 602259). Format: functional. To be noted: read-out: IC50_Mean.

Where a name gives a salt, the structure may show the parent alone. Calls of active or inactive are those of the source. Where only a bound is given, the exact number is not on record here.

Chain of Cytochrome P450 2C19 (P33261 whole entry): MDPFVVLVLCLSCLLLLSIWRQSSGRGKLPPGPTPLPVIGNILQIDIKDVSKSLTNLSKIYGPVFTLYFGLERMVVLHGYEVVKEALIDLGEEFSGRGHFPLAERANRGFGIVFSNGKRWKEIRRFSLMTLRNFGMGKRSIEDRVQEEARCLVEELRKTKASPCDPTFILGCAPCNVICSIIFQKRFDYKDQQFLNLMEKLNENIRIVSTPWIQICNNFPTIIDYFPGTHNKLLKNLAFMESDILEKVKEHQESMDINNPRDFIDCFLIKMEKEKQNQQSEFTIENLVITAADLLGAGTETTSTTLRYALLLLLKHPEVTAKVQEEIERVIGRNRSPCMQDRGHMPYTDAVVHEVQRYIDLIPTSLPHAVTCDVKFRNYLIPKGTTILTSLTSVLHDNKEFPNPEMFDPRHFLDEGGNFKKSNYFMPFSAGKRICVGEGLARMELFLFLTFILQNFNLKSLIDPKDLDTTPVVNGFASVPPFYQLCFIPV
T4 sequence (P11940 whole entry): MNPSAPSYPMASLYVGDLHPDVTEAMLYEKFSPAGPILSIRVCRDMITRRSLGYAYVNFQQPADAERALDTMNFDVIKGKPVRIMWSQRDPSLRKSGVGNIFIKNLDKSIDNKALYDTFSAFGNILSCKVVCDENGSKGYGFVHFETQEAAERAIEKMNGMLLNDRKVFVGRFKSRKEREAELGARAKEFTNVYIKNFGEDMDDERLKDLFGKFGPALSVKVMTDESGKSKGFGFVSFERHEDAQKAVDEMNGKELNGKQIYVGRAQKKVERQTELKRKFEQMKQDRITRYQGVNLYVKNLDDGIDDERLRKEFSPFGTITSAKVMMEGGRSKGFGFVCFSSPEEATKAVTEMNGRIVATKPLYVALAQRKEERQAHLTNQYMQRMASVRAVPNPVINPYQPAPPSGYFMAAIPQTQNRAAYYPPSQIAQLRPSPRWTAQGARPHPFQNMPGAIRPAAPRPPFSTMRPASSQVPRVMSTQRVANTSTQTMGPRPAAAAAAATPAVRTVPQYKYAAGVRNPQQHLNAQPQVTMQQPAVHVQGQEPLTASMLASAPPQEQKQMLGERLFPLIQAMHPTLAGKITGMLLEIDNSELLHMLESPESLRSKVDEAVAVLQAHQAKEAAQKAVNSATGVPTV
Chain of Voltage-dependent T-type calcium channel subunit alpha-1H (O95180 whole entry): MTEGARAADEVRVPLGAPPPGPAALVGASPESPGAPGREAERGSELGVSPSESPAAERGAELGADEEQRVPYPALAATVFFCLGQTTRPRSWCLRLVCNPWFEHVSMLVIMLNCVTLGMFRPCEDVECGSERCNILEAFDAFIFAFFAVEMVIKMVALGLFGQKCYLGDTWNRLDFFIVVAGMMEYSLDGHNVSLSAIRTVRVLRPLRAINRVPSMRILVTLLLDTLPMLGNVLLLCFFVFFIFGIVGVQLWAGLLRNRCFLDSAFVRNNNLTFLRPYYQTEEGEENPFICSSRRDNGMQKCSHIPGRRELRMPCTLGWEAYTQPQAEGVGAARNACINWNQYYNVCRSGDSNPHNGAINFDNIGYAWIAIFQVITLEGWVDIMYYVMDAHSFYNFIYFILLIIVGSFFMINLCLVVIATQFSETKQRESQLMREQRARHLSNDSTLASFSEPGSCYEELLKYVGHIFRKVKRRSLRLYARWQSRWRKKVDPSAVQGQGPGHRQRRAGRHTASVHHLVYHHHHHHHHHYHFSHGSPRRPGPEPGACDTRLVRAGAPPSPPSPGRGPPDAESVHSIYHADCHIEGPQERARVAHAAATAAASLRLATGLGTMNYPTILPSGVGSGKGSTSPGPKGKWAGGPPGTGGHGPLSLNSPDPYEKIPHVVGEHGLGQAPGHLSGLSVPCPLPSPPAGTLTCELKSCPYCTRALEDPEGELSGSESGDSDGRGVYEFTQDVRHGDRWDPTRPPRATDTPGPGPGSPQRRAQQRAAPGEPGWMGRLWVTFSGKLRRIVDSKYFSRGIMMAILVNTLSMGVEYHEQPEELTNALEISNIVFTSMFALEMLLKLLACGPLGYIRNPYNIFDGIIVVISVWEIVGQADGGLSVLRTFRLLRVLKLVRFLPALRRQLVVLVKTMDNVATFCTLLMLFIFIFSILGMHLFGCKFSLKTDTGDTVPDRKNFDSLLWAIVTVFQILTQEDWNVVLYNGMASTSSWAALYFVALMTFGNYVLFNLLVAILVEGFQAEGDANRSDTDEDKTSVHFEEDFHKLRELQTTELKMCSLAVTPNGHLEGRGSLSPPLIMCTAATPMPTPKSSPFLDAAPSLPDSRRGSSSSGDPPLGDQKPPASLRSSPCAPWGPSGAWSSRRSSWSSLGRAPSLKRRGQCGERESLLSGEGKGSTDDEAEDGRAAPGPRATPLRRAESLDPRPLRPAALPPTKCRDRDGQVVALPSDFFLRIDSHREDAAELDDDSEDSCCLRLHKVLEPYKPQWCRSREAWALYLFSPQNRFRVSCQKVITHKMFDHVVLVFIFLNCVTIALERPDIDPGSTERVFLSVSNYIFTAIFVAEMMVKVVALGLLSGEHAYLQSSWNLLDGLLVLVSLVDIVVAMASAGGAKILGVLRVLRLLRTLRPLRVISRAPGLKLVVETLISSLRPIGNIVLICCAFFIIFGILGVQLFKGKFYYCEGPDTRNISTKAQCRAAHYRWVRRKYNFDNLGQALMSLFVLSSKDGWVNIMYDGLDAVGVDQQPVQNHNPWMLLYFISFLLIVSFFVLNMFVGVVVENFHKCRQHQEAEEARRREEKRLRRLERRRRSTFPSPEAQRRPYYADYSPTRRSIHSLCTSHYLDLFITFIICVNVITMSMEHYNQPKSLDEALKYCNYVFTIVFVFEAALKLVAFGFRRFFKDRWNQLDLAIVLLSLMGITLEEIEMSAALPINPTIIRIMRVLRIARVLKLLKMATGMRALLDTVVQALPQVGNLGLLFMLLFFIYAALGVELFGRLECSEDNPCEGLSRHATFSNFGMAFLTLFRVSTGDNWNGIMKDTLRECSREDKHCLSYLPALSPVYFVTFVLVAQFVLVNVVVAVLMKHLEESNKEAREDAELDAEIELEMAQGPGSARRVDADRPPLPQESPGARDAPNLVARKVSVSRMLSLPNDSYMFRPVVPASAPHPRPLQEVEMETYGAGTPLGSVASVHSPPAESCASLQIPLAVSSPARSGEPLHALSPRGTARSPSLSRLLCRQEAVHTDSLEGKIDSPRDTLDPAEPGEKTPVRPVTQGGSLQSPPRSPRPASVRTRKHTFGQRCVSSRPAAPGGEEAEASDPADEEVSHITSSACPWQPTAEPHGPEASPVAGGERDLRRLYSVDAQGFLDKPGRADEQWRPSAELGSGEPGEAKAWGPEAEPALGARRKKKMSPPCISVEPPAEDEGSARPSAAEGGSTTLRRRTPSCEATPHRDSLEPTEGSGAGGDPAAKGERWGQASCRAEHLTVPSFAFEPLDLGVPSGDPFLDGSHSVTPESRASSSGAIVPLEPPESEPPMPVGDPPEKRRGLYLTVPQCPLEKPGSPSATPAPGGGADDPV

`O=C(NCCc1c[nH]c2ccccc12)c1cc([N+](=O)[O-])cc([N+](=O)[O-])c1`: the EC50 is < 0.1 µM (active) in [1], 0.264 µM (active) in experiment [2] and > 60 µM (not active) in [3].
Take `Cc1cc(C(=O)N(C)CC2CCCN(CCc3ccc(F)cc3)C2)c(C)o1` (stereo not drawn): the values for the EC50 in experiment [1], in experiment [2] and in experiment [3] were < 0.1 µM (active), 0.279 µM (active) and > 60 µM (not active), respectively.
As to `O=C(O)/C=C/C(=O)Nc1ccc2c(c1)NC(=O)CO2`, the IC50 in [4] and in experiment [5] was > 50 µM (not active) in each case.
Consider `c1ccc(-c2csc(Nc3ccccn3)n2)cc1`, for which, in experiment [6], the IC50 was 18 µM (active). Moreover, the EC50 in experiment [7] and in experiment [8] was > 67.5 µM (inactive) throughout.
As to `CCOc1cc2c(C#N)c(N3CCOCC3)nc(N)c2c(N)n1`, the IC50 in experiment [4] and in experiment [5] was > 50 µM (not active) throughout.
`CCOC(=O)OCC1OC(CCc2ccccc2)CCC1Oc1ccc(OC)cc1` (stereo not drawn): the AC50 in experiment [9] was 2.51 µM (inconclusive).
Regarding `c1ccc(Nc2nc(-c3cccs3)cs2)nc1`, the IC50 in experiment [6] is 15.6 µM (active). Besides, the EC50 was 9.21 µM (active) in experiment [10], > 67.5 µM (inactive) in [7] and > 67.5 µM (inactive) in [8].
As to `Cc1ccc2nc(N(CCCN(C)C)C(=O)c3ccco3)sc2c1`, the EC50 in experiment [1] is < 0.1 µM (active); in experiment [2], 0.036 µM (active); in experiment [3], > 60 µM (not active).
In the case of `COc1ccc(/C=C/C(=O)c2ccc(OC)cc2O)cc1`, in [9], the AC50 is 0.398 µM (inconclusive).
`COc1ccc(S(=O)(=O)N(C)C[C@H]2Oc3c(NC(=O)Nc4ccccc4)cccc3C(=O)N([C@@H](C)CO)C[C@H]2C)cc1`: the AC50 in experiment [11] was 4.8 µM (active); in experiment [12] it was 33.8 µM (active).
Regarding `COc1ccc2c3c([nH]c2c1)[C@@H](CO)N(C(=O)Nc1ccc(F)cc1)CC31CN(Cc2cc(F)ccc2F)C1`, the AC50 in experiment [12] was 18.8 µM (active).
Take `CC(=O)c1ccc2c(c1)N(CCCN(C)C)c1ccccc1S2` [ACEPROMAZINE MALEATE]: the IC50 was > 66 µM (inactive) in [13], 11.4 µM (inactive) in [14] and > 66 µM (inactive) in experiment [15].
